Values belong to the compound of their own block, whether it stands above or below them.
Key:
[1] = biological target: T1, OX1 (Homo sapiens, UniProt O43613); assay: Orexin receptor cell-based functional assay, [Ca2+]i by FLIPR, CHO-OX1 cells; conditions: CHO-OX1 cells, [Ca2+]i by FLIPR, antagonist dose-range 0.1 nM-10 μM, EC90 of OXA; read-out: OX1
T1 construct: expressed in transfected cells; host or cells: CHO (CHO-OX1, kept under selection antibiotic)
T1 sequence (O43613 1-425): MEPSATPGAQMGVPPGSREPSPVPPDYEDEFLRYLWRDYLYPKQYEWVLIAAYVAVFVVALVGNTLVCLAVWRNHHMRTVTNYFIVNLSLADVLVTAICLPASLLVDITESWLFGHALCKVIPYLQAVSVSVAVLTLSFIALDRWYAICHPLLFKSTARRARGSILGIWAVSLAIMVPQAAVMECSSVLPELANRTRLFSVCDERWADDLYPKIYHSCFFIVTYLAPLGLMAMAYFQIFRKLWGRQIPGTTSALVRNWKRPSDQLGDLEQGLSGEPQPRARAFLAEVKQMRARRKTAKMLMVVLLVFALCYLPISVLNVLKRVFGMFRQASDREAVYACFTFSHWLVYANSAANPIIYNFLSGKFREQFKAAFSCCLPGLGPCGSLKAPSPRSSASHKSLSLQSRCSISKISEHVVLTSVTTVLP
Outline: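 Antagonist mode FLIPR calcium read in CHO-OX1 and CHO-OX2 lines. Test compounds, dosed 0.1 nM-10 μM, preincubated 30 min after 37° C dye loading with 2.5 mM probenecid (calcium4 for 30 min or calcium6 for 2 h).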

[2] = biological target: T2, cytochrome P450 3A4 isoform (Homo sapiens, UniProt P08684); assay: Cytochrome P450 inhibition assay (midazolam hydroxylation); type: in vitro ADME; conditions: 10 μM test compound, midazolam at approximately its Km, human liver microsomes
T2 construct: pre-incubated with human liver microsomes and NADPH; from tissue; host or cells: human liver microsomes
T2 sequence (P08684 whole entry, canonical isoform): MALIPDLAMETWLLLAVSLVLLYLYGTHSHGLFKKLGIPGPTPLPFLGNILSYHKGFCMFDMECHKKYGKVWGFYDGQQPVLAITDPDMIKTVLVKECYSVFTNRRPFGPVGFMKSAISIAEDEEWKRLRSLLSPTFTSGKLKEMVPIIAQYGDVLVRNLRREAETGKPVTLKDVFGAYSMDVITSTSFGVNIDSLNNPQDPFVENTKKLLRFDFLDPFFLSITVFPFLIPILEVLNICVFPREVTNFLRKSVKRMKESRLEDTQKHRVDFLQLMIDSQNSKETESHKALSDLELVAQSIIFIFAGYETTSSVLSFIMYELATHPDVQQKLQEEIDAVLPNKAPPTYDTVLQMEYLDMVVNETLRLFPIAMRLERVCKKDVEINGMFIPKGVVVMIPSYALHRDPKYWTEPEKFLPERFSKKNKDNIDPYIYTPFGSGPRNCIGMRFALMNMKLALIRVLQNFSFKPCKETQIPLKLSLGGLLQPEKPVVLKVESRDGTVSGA
Outline: (§1)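 Percent inhibition of midazolam 1′-hydroxylation by 10 μM compound was measured, midazolam dosed at about Km. Time-dependent inhibition was probed by a 30 min preincubation of compound with human liver microsomes and NADPH ahead of substrate, compared against samples without preincubation.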

[3] = biological target: T3, CYP3A4 (Homo sapiens, UniProt P08684); assay: as above; type: in vitro ADME; conditions: human, human liver microsomes, probe midazolam (hydroxylation to 1′-hydroxymidazolam), 10 μM test compound, midazolam at approximately its Km
T3 construct: pre-incubated with human liver microsomes and NADPH; from tissue; host or cells: human liver microsomes
T3 sequence (P08684 whole entry): as the sequence (P08684 whole entry, canonical isoform) above
Outline: as §1

[4] = biological target: T4, OX2 (Homo sapiens, UniProt O43614); assay: Orexin receptor cell-based functional assay, [Ca2+]i by FLIPR, CHO-OX2 cells; conditions: [Ca2+]i by FLIPR, antagonist dose-range 0.1 nM-10 μM, EC90 of OXA, read-out: OX2
T4 construct: expressed in transfected cells; host or cells: CHO (CHO-OX2, kept under selection antibiotic)
T4 sequence (O43614 1-444): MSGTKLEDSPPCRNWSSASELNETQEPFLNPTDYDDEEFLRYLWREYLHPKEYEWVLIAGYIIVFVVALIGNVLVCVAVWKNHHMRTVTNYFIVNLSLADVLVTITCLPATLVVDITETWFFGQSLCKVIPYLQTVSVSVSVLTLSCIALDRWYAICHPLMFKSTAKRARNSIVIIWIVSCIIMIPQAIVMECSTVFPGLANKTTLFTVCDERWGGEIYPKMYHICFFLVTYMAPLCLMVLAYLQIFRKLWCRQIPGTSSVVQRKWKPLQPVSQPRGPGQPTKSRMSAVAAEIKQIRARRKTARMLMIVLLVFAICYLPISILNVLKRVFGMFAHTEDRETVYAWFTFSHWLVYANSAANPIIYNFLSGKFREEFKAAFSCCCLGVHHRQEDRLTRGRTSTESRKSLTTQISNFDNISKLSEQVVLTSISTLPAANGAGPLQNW
Protocol: Measurement of [Ca^2+]i using a FLIPR: CHO—OX1 or CHO—OX2 cells are seeded into black-walled clear-base 384-well plates (Costar) at a density of 20,000 cells per well in F12-K medium supplemented with 10% FBS and selection antibiotic (500 ug/ml G418 or 15 ug/ml Blasticidin) and cultured overnight. The cells are incubated with equal volume of calcium4 loading buffer (Molecular Devices, Inc.) containing 2.5 mM probenecid at 37° C. for 30 min, followed by putative OX1 or OX2 receptor antagonists (dose-range 0.1 nM-10 μM) for another 30 min.
The cells are incubated with equal volume of calcium6 loading buffer (Molecular Devices, Inc.) containing 2.5 mM probenecid at 37° C. for 2 h, followed by test compounds (dose-range 0.1 nM-10 μM) for another 30 min.

Compound: C[C@@H]1CCCN(C(=O)c2cccc(F)c2-c2ncccn2)[C@@H]1CNc1ccc(Cl)cn1 [Example A232, ((2S,3R)-2-(((5-chloropyridin-2-yl)amino)methyl)-3-methylpiperidin-1-yl)(3-fluoro-2-(pyrimidin-2-yl)phenyl)methanone]
- IC50 [1]: 8 nM
- % CYP3A4 Inhibition [2]: 65%

Compound: Cc1ccc(-n2nccn2)c(C(=O)N2CCC[C@@H](C)[C@H]2CNc2ncc(Cl)cc2F)c1 [Example A92, ((2S,3R)-2-(((5-Chloro-3-fluoropyridin-2-yl)amino)methyl)-3-methylpiperidin-1-yl)(5-methyl-2-(2H-1,2,3-triazol-2-yl)phenyl)methanone]
- % CYP3A4 Inhibition ([2]; 10 µM): 91%

Compound: Cc1nc(C(=O)N2CCC[C@@H](C)[C@H]2CNc2nc3cc(Cl)ccc3o2)c(-c2ccc(F)cc2)s1 [Example A84, ((2S,3R)-2-(((5-Chlorobenzo[d]oxazol-2-yl)amino)methyl)-3-methylpiperidin-1-yl)(5-(4-fluorophenyl)-2-methylthiazol-4-yl)methanone]
- % CYP3A4 Inhibition ([2]; 10 µM): 50%

Compound: Cc1ccc(-n2nccn2)c(C(=O)N2CCC[C@@H](C)[C@H]2CNc2ncc(Cl)cc2F)n1 [Example A192, ((2S,3R)-2-(((5-Chloro-3-fluoropyridin-2-yl)amino)methyl)-3-methylpiperidin-1-yl)(6-methyl-3-(2H-1,2,3-triazol-2-yl)pyridin-2-yl)methanone]
- IC50 [1]: 10 nM
- inhibition at 10 µM [3]: 51%
- IC50 [4]: > 5000 nM

Compound: Cc1cc(F)c(-c2ncccn2)c(C(=O)N2CCC[C@@H](C)[C@H]2CNc2ncc(C(F)(F)F)cn2)c1 [Example A375, (3-fluoro-5-methyl-2-(pyrimidin-2-yl)phenyl)((2S,3R)-3-methyl-2-(((5-(trifluoromethyl)pyrimidin-2-yl)amino)methyl)piperidin-1-yl)methanone]
- IC50 [1]: 8 nM
- inhibition at 10 µM [3]: 48%
- IC50 [4]: 170 nM

Compound: Cc1ccc(-n2nccn2)c(C(=O)N2CCC[C@@H](C)[C@H]2CNc2ncc(F)cc2F)c1 [Example A91, ((2S,3R)-2-(((3,5-Difluoropyridin-2-yl)amino)methyl)-3-methylpiperidin-1-yl)(5-methyl-2-(2H-1,2,3-triazol-2-yl)phenyl)methanone]
- % CYP3A4 Inhibition ([2]; 10 µM): 58%

Compound: Cc1nc(C(=O)N2CCC[C@@H](C)[C@H]2CNc2nc3cc(Cl)ccc3o2)c(-c2ccc(F)cc2)s1 [Example A13, ((2S,3R)-2-(((5-Chlorobenzo[d]oxazol-2-yl)amino)methyl)-3-methylpiperidin-1-yl)(5-(4-fluorophenyl)-2-methylthiazol-4-yl)methanone]
- % CYP3A4 Inhibition ([2]; 10 µM): 83%

Compound: C[C@@H]1CCCN(C(=O)c2c(F)ccc(F)c2-n2nccn2)[C@@H]1CNc1ncc(C(F)(F)F)cn1 [Example A333, (3,6-difluoro-2-(2H-1,2,3-triazol-2-yl)phenyl)((2S,3R)-3-methyl-2-(((5-(trifluoromethyl)pyrimidin-2-yl)amino)methyl)piperidin-1-yl)methanone]
- IC50 [1]: 15 nM
- inhibition at 10 µM [3]: 38%
- IC50 [4]: > 5000 nM

The remaining lines, values ahead:

- IC50 [1]: 5 nM
- inhibition at 10 µM [3]: 83%
- IC50 [4]: > 5000 nM
Compound: Cc1ccc(C(=O)N2CCC[C@@H](C)[C@H]2CNc2ncc(C(F)(F)F)cn2)c(-n2nccn2)c1F [Example A357, (3-fluoro-4-methyl-2-(2H-1,2,3-triazol-2-yl)phenyl)((2S,3R)-3-methyl-2-(((5-(trifluoromethyl)pyrimidin-2-yl)amino)methyl)piperidin-1-yl)methanone]

- IC50 [1]: 4 nM
- inhibition at 10 µM [3]: 49%
- IC50 [4]: 790 nM
Compound: Cc1ccc(F)c(C(=O)N2CCC[C@@H](C)[C@H]2CNc2ccc(C(F)(F)F)cn2)c1-c1ncccn1 [Example A354, (6-fluoro-3-methyl-2-(pyrimidin-2-yl)phenyl)((2S,3R)-3-methyl-2-(((5-(trifluoromethyl)pyridin-2-yl)amino)methyl)piperidin-1-yl)methanone]

- IC50 [1]: 2 nM
- inhibition at 10 µM [3]: 62%
- IC50 [4]: > 5000 nM
Compound: C[C@@H]1CCCN(C(=O)c2c(F)ccc(F)c2-n2nccn2)[C@@H]1CNc1ccc(C(F)(F)F)cn1 [Example A332, (3,6-Difluoro-2-(2H-1,2,3-triazol-2-yl)phenyl)((2S,3R)-3-methyl-2-(((5-(trifluoromethyl)pyridin-2-yl)amino)methyl)piperidin-1-yl)methanone]

- IC50 [1]: 1 nM
- inhibition at 10 µM [3]: 83%
- IC50 [4]: 380 nM
Compound: Cc1cc(F)cc(C(=O)N2CCC[C@@H](C)[C@H]2CNc2ccc(C(F)(F)F)cn2)c1-c1ncccn1 [Example A342, (5-Fluoro-3-methyl-2-(pyrimidin-2-yl)phenyl)((2S,3R)-3-methyl-2-(((5-(trifluoromethyl)pyridin-2-yl)amino)methyl)piperidin-1-yl)methanone]

- IC50 [1]: 2 nM
- inhibition at 10 µM [3]: 54%
- IC50 [4]: 500 nM
Compound: C[C@@H]1CCCN(C(=O)c2c(F)ccc(F)c2-c2ncccn2)[C@@H]1CNc1ccc(C(F)(F)F)cn1 [Example A334, (3,6-difluoro-2-(pyrimidin-2-yl)phenyl)((2S,3R)-3-methyl-2-(((5-(trifluoromethyl)pyridin-2-yl)amino)methyl)piperidin-1-yl)methanone]

- IC50 [1]: 1 nM
- inhibition at 10 µM [3]: 60%
- IC50 [4]: 1900 nM
Compound: Cc1cc(F)c(-n2nccn2)c(C(=O)N2CCC[C@@H](C)[C@H]2CNc2ncc(C(F)(F)F)cn2)c1 [Example A373, (3-fluoro-5-methyl-2-(2H-1,2,3-triazol-2-yl)phenyl)((2S,3R)-3-methyl-2-(((5-(trifluoromethyl)pyrimidin-2-yl)amino)methyl)piperidin-1-yl)methanone]

- IC50 [1]: 2 nM
- inhibition at 10 µM [3]: 86%
- IC50 [4]: 3900 nM
Compound: Cc1ccc(C(=O)N2CCC[C@@H](C)[C@H]2CNc2ccc(C(F)(F)F)cn2)c(-n2nccn2)c1F [Example A356, (3-Fluoro-4-methyl-2-(2H-1,2,3-triazol-2-yl)phenyl)((2S,3R)-3-methyl-2-(((5-(trifluoromethyl)pyridin-2-yl)amino)methyl)piperidin-1-yl)methanone]

- IC50 [1]: 2 nM
- inhibition at 10 µM [3]: 77%
- IC50 [4]: > 4000 nM
Compound: Cc1cc(F)cc(C(=O)N2CCC[C@@H](C)[C@H]2CNc2ccc(C(F)(F)F)cn2)c1-n1nccn1 [Example A348, (5-fluoro-3-methyl-2-(2H-1,2,3-triazol-2-yl)phenyl)((2S,3R)-3-methyl-2-(((5-(trifluoromethyl)pyridin-2-yl)amino)methyl)piperidin-1-yl)methanone]

- IC50 [1]: 2 nM
- inhibition at 10 µM [3]: 80%
- IC50 [4]: 4100 nM
Compound: C[C@@H]1CCCN(C(=O)c2ccc(F)c(F)c2-n2nccn2)[C@@H]1CNc1ncc(C(F)(F)F)cn1 [Example A325, (3,4-difluoro-2-(2H-1,2,3-triazol-2-yl)phenyl)((2S,3R)-3-methyl-2-(((5-(trifluoromethyl)pyrimidin-2-yl)amino)methyl)piperidin-1-yl)methanone]

- IC50 [1]: 2 nM
- inhibition at 10 µM [3]: 75%
- IC50 [4]: 2800 nM
Compound: Cc1c(F)ccc(C(=O)N2CCC[C@@H](C)[C@H]2CNc2ccc(C(F)(F)F)cn2)c1-n1nccn1 [Example A344, (4-Fluoro-3-methyl-2-(2H-1,2,3-triazol-2-yl)phenyl)((2S,3R)-3-methyl-2-(((5-(trifluoromethyl)pyridin-2-yl)amino)methyl)piperidin-1-yl)methanone]
